Measured values as given in patent US20230089916A1, “IRAK DEGRADERS AND USES THEREOF” (Kymera Therapeutics, Inc., priority 2019, published 2023).

Experiments:
Format in all cases: cell-based
U2932 cells (MYD88 WT) = test: Cell viability (CTG) with U2932; settings: Homo sapiens, MYD88 WT line
[1] = tested on: SU-DHL2 cells (MYD88 mutant); test: Cell viability (CTG) with SU-DHL2; settings: Homo sapiens, SU-DHL-2; MYD88 mutant line
SU-DHL6 cells (MYD88 WT) = test: Cell viability (CTG) with SU-DHL6; settings: Homo sapiens, SU-DHL-6; MYD88 WT line
[2] = tested on: OCI-LY19 cells (MYD88 WT); test: Cell viability (CTG) with OCI-LY19; settings: Homo sapiens, MYD88 WT line
[3] = tested on: OCI-LY10 cells (MYD88 mutant); test: Cell viability assay (CellTiter-Glo) with OCI-LY10; settings: Homo sapiens, MYD88 mutant line, read-out: OCI-LY10 Viability, CTG IC50
Protocol: Compound-mediated viability effect on OCI-LY10 or TMD8 was quantitatively determined using the CellTiter-Glo® Luminescent Cell Viability Assay kit from Promega (Catalog number G7570) following manufacturer's recommended procedures. Briefly, OCI-LY10 or TMD8 cells were seeded into 384 well plates (Grenier Bio-One, Catalog number 781080) with a density of 10,000 cells per well. Compounds were then added to the assay plate with final top concentration of 10 μM and 1:3 dilution series with total of 9 doses. The final DMSO concentration was normalized to 0.2%. The assay plates were incubated at 37° C. for 4 days under 5% CO2. Then the assay plate was equilibrated at room temperature for 10 minutes. To determine cell viability, 30 μL CellTiter Glo reagent was added to each well and the assay plate was centrifuged at 1000 rpm for 30 second, incubated at room temperature for 10 min, and analyzed by detecting the luminescence using a multimode plate reader (EnVision 2105, PerkinElmer). The data was then analyzed by software Prism 7.0 from GraphPad and the dose response curves were fit using a three-parameter logistic equation to calculate IC50.

IC50 [1]: > 10 µM
IC50 (SU-DHL6 cells (MYD88 WT)): 4.1 µM
IC50 [2]: > 10 µM
IC50 [3]: 3.5 µM
Compound: CC[C@@H]1CC(=O)N[C@@H]1COc1ncc(C#C[C@H]2CC[C@H](CN3CCC(OCCCc4cccc5c4n(C)c(=O)n5C4CCC(=O)NC4=O)CC3)CC2)c2cc(C(N)=O)c(OC)cc12 (some centres unmarked) [I-1]
IC50 (U2932 cells (MYD88 WT)): > 10 µM
